Reference: article PMC12587545, “Noncytotoxic polymyxin derivatives enhance antibiotic action against multidrug-resistant Gram-negative bacteria” (Antimicrobial Agents and Chemotherapy, 2025)
Positions of bridges follow the written chain, without caps; N, C: chain ends. Non-standard residues stand in square brackets, D forms with d. Residues, ends and D or L forms follow the SMILES beside them. *: point of attachment. Octanoyl = CCCCCCCC(=O)*; Dab = NCC[C@H](N)C(=O)O; Dap = NC[C@H](N)C(=O)O

Assays:
[1] = system: P. aeruginosa
Method: (§1) The bacterial isolates were acquired from ATCC or the Canadian Ward Surveillance (CANWARD) study ([56]). CANWARD isolates were collected from infected patients admitted to participating medical centers across Canada.
(§2) The antibiotic or compound was serially diluted 2-fold in CAMHB on a 96-well plate and was incubated with equal volumes of bacterial inoculum overnight at 37°C. Wells containing only media were used as negative controls, and wells containing only bacteria were used as positive controls. Antibacterial activity was measured by the MIC, or the lowest concentration of agent required to inhibit visible bacterial growth. Turbidity was confirmed with a Molecular Devices (United States) EMax Plus microplate reader at a wavelength of 590 nm.

[2] = system: K. pneumoniae
Method: as §1, §2

[3] = system: U-87 MG; experiment: Cell viability assay (PrestoBlue); assay type: cell-based; settings: 24 h
Method: (§3) Kidney cell lines, HK-2 (CRL-2190) and RPTEC/TERT1 (CRL-4031), and neural cell lines, U-87 MG (HTB-14) and SK-N-SH (HTB-11), were obtained from American Type Culture Collection (ATCC). HK-2 cells were cultured in T75 flasks with keratinocyte serum-free medium supplemented with bovine pituitary extract, human epidermal growth factor, and 2.5% FBS. RPTEC/TERT1 cells were cultured in T75 flasks with Dulbecco’s modified Eagle’s medium:F12 supplemented with the ATCC (United States) human telomerase reverse transcriptase immortalized RPTEC growth kit, G418 (0.1 mg/mL final concentration), and 2% FBS. Both U-87 MG and SK-N-SH cells were cultured in minimal essential media supplemented with 10% FBS. The cells were incubated in a humidified atmosphere at 5% CO2 and at 37°C.
(§4) The cytotoxicity of the compounds toward the mammalian cell lines was assessed using the cell viability assay protocols as previously described ([29]). Designated wells in 96-well plates were seeded with HK-2 (5,000 cells), RPTEC/TERT1 (8,000 cells), U-87 MG (7,000 cells), or SK-N-SH (8,000 cells) in 50 µL. Blank wells received an identical volume of only media. […] Subsequently, PrestoBlue reagent (Invitrogen, United States) was added to the wells to a final concentration of 10% (vol/vol), and the plate was incubated for an additional 1 h. Fluorescence was measured with a SpectraMax M2 plate reader (Molecular Devices, United States), at excitation and emission wavelengths of 560 and 590 nm, respectively. Values from the blank wells were subtracted from the corresponding wells containing cells. The cell viability relative to the controls with vehicle was calculated and presented as mean ± standard deviation of at least two experiments with five replicates each. CC50 values were obtained using GraphPad Prism (version 10.4.1) by non-linear regression (four-parameter logistic fit).

[4] = system: SK-N-SH; experiment: Cell viability assay (PrestoBlue); assay type: cell-based; settings: 24 h
Method: as §3, §4

[5] = system: HK-2; assay type: cell-based, human; settings: 48 h
Method: as §3
The cytotoxicity of the compounds toward the mammalian cell lines was assessed using the cell viability assay protocols as previously described ([29]). Designated wells in 96-well plates were seeded with HK-2 (5,000 cells), RPTEC/TERT1 (8,000 cells), U-87 MG (7,000 cells), or SK-N-SH (8,000 cells) in 50 µL. Blank wells received an identical volume of only media. After incubating the cells for 24 h, all wells were treated with varying concentrations of the compound and incubated for 48 h. Subsequently, PrestoBlue reagent (Invitrogen, United States) was added to the wells to a final concentration of 10% (vol/vol), and the plate was incubated for an additional 1 h. Fluorescence was measured with a SpectraMax M2 plate reader (Molecular Devices, United States), at excitation and emission wavelengths of 560 and 590 nm, respectively. Values from the blank wells were subtracted from the corresponding wells containing cells. The cell viability relative to the controls with vehicle was calculated and presented as mean ± standard deviation of at least two experiments with five replicates each. CC50 values were obtained using GraphPad Prism (version 10.4.1) by non-linear regression (four-parameter logistic fit).

MIC [1]: >128 µg/mL
MIC [2]: >128 µg/mL
Compound: CCCCCCCC(=O)N[C@@H](CN)C(=O)N[C@H](C(=O)N[C@@H](CN)C(=O)N[C@H]1CCNC(=O)[C@H]([C@@H](C)O)NC(=O)[C@H](CN)NC(=O)[C@H](CN)NC(=O)[C@H](CC(C)C)NC(=O)[C@@H](Cc2ccccc2)NC(=O)[C@H](CN)NC1=O)[C@@H](C)O [Compound 1] (Octanoyl-[Dap]T[Dap][Dab][Dap][dF]L[Dap][Dap]T; lactam 4-C)
cell viability [3]: exceeding 100%
cell viability [4]: exceeding 100%
CC50 in HK-2 [5]: 238.7 µM
